The values below come from patent publication US6720314B1, “Use of a vital dye for facilitating surgical procedures for cataract extraction” (priority 1998, dated 2004).

One data set deals with anterior lens capsule. Kind of data set: staining capacity of the dyes (general statement). Conditions: very low amounts of dye.
Data set [1] can be described thus: toxicity profile of the dyes (general statement).

Regarding `CCN(CC)c1ccc2nc3cc(C)c(N)cc3[o+]c2c1.[Cl-]` [brilliant crysyl blue], the staining result in the data set with anterior lens capsule was “clearly visible staining at very low amounts”. Besides, the toxicity profile entry in data set [1] is recorded as “extremely advantageous toxicity profile”.
With `Cc1cc(-c2ccc(/N=N/c3c(S(=O)(=O)O)cc4cc(S(=O)(=O)O)cc(N)c4c3O)c(C)c2)ccc1/N=N/c1c(S(=O)(=O)O)cc2cc(S(=O)(=O)O)cc(N)c2c1O` [trypan blue], the staining result with anterior lens capsule is “clearly visible staining at very low amounts”. Besides, the toxicity profile result in data set [1] is “extremely advantageous toxicity profile”.
For the molecule `Nc1c(S(=O)(=O)[O-])cc2cc(S(=O)(=O)[O-])ccc2c1N=Nc1ccc(-c2ccc(N=Nc3c(N)c(S(=O)(=O)[O-])cc4cc(S(=O)(=O)[O-])ccc34)c(S(=O)(=O)[O-])c2)cc1.[Na+].[Na+].[Na+].[Na+].[Na+]` [trypan red], the staining entry with anterior lens capsule is recorded as “clearly visible staining at very low amounts”.
